{
  "source": "patent US9371364B2",
  "about": "“Dual-targeted therapeutic peptide for nasopharyngeal carcinoma, nanoparticles carrying same and uses thereof” (HUAZHONG UNIVERSITY OF SCIENCE AND TECHNOLOGY, priority 2012, dated 2016)",
  "system": "nasopharyngeal carcinoma cells (5-8 F, SUNE-1, HONE-1) versus other cancer cells",
  "test": "Octa-FNP fluorescent nano-probe screening of tumor cells (laser confocal imaging, FACS)",
  "format": "cell-based",
  "details": "3 h incubation, FIG. 1",
  "experimental": "In this example, a peptide octavalent fluorescent nanoprobe based on tetramer far-red fluorescent protein was prepared by using a method for constructing a peptide fluorescent probe having a multivalent effect and a nanosized effect invented in the previous research. The probe was used to detect and screen different types of tumor cell lines, in order to screen and identify the tumor-targeting property of the peptide, […] (SEQ ID NO: 3).",
  "data": [
    {"sequence": "LTVSPWYLTVSPWY (a targeted therapeutic peptide for nasopharyngeal carcinoma)", "values": [
      {"measurement": "induction of tumor cell death", "value": "can effectively induce the death of tumor cells"},
      {"measurement": "tumor-targeting property of the peptide", "value": "excellent tumor-targeting property to nasopharyngeal carcinoma cells"}
    ]}
  ]
}
